Experimental data as given in ChEMBL document CHEMBL1124332, “2-(Alkylamino)tetralin derivatives: interaction with 5-HT1A serotonin binding sites” (J Med Chem, 1989).

Tests used:
[1] = biological target: T1, 5-hydroxytryptamine receptor 1A (Rattus norvegicus) (UniProt P19327); experiment: Binding affinity at [3H]8-OH-DPAT-Labeled 5-hydroxytryptamine 1A receptor sites in rat brain hippocampal membranes expressed as Hill values; type: cell membranes
T1 sequence (whole entry): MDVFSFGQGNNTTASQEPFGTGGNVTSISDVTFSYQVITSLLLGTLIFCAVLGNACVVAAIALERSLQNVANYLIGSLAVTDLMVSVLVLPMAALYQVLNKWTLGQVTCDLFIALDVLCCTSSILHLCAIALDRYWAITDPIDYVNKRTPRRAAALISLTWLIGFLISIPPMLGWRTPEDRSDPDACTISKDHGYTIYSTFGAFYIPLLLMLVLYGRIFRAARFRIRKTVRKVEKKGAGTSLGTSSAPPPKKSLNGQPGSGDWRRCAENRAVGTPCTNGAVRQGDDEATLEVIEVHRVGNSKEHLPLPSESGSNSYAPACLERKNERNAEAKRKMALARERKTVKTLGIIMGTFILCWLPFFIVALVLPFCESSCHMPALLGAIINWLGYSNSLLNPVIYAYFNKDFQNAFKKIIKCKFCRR

[2] = biological target: T2, 5-hydroxytryptamine receptor 1A (Rattus norvegicus, UniProt P19327); experiment: Binding affinity at [3H]8-OH-DPAT-Labeled 5-hydroxytryptamine 1A receptor sites in rat brain hippocampal membranes; type: cell membranes
T2 sequence (P19327 whole entry): T1 sequence (whole entry)

| Structure (SMILES) | Hill coefficient [1] | Ki [2] |
| --- | --- | --- |
| COc1cccc2c1CC(NCCCc1ccccc1)CC2 (stereo not drawn) | 0.83 | 2.5 nM |
| CCCN(CCC)C1CCc2cccc(OC)c2C1 (stereo not drawn) | 0.78 | – |
| Oc1cccc2c1CC(NCCCc1ccccc1)CC2 (stereo not drawn) | 0.87 | 1.9 nM |
| CCCN(C)C1CCc2cccc(OC)c2C1 (stereo not drawn) | 0.91 | 2.1 nM |
| COc1cccc2c1CC(N(C)Cc1ccccc1)CC2 (stereo not drawn) | 0.91 | 78 nM |
| CCCNC1CCc2ccccc2C1 (stereo not drawn) | 0.74 | 19 nM |
| c1ccc(CCCNC2CCc3ccccc3C2)cc1 (stereo not drawn) | 1.06 | 13 nM |
| c1ccc(CCCNC2CCc3cccc(OCc4ccccc4)c3C2)cc1 (stereo not drawn) | 0.91 | 10 nM |
| CCCNC1CCc2cccc(OC)c2C1 (stereo not drawn) | 0.8 | 2.3 nM |
| COc1cccc2c1CC(N(C)CCCc1ccccc1)CC2 (stereo not drawn) | 0.94 | 2 nM |
| COc1cccc2c1CC(NCCc1ccccc1)CC2 (stereo not drawn) | 0.85 | 44 nM |
| COc1cccc2c1CC(N(C)CCc1ccccc1)CC2 (stereo not drawn) | 0.9 | 7.9 nM |
| CCCN(CCC)C1CCc2cccc(O)c2C1 (stereo not drawn) | 1.01 | – |
| COc1cccc2c1CC(NCCCCc1ccccc1)CC2 (stereo not drawn) | 0.92 | 5.6 nM |
| COc1cccc2c1CC(N)CC2 (stereo not drawn) | 0.77 | 53 nM |
